The target in series [1] is T1, Potassium voltage-gated channel subfamily A member 5 (Homo sapiens, UniProt P22460). The series can be described thus: Inhibition of human Kv1.5 channel expressed in mouse L929 cells. It counts as cell-based.
Series [2] deals with T1, Potassium voltage-gated channel subfamily A member 5. In words: Inhibition of human Kv1.5 channel expressed in mouse L929 cells at >1 uM. The series is classed as cell-based.
A short description of series [3]: Inhibition of sodium channel at 10 uM.
Series [4] can be described thus: Volume of distribution at steady state in rat at 10 umol/kg, intra-arterial for 10 mins. The series is classed as ADME, organism-based. As to conditions: in vivo, read-out: Vdss.
The nature of series [5]: Plasma clearance in rat at 10 umol/kg, intra-arterial for 10 mins. It counts as ADME, organism-based.
A further series is filed under the species Homo sapiens. The series can be described thus: Selectivity for human Kv1.5 channel over human ERG.
Series [6] is described as follows: Selectivity for human Kv1.5 channel over sodium channel.
In series [7] the test system is Oryctolagus cuniculus. The series can be described thus: Prolongation of effective refractory period in rabbit atrium at 3 mg/kg. The series is classed as functional, Cardiac atrium.
Series [8] can be described thus: Inhibition of calcium channel at 10 uM.
The nature of series [9]: Terminal half life in rat at 10 umol/kg, intra-arterial for 10 mins. As to conditions: in vivo, read-out: beta t1/2 (converted). It counts as ADME, organism-based.
A further series concerns the target hERG (KCNH2) (Homo sapiens, UniProt Q12809). The series can be described thus: Inhibition of human ERG at 10 uM.
In series [10] the test system is Oryctolagus cuniculus. The series can be described thus: Prolongation of effective refractory period in rabbit ventricle at 0.3 to 10 mg/kg. It counts as functional, organism-based.
A short description of series [11]: Oral bioavailability in rat at 20 umol/kg. The series is classed as ADME, organism-based. Particulars: in vivo.
Series [12] can be described thus: Selectivity for human Kv1.5 channel over calcium channel.

Molecules are shown by their SMILES. The source made the active and inactive calls. The rule behind the calls is not given here.

T1 sequence (P22460 whole entry): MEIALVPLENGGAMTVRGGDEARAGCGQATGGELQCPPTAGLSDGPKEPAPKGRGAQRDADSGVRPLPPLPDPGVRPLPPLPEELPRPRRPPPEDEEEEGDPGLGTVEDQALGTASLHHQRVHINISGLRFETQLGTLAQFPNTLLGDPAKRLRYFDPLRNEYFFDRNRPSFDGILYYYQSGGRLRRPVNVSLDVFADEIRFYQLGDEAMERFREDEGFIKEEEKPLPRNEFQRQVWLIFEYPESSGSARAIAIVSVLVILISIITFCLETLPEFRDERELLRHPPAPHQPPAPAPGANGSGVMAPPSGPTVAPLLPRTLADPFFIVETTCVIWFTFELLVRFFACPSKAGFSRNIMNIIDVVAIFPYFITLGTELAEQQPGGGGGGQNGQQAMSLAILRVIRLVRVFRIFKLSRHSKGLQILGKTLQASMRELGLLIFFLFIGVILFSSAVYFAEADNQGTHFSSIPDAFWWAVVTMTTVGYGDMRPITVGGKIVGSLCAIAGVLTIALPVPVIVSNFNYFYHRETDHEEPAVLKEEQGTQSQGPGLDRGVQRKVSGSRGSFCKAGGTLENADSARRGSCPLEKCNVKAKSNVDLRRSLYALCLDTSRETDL
Sequence of hERG (KCNH2) (Q12809 whole entry): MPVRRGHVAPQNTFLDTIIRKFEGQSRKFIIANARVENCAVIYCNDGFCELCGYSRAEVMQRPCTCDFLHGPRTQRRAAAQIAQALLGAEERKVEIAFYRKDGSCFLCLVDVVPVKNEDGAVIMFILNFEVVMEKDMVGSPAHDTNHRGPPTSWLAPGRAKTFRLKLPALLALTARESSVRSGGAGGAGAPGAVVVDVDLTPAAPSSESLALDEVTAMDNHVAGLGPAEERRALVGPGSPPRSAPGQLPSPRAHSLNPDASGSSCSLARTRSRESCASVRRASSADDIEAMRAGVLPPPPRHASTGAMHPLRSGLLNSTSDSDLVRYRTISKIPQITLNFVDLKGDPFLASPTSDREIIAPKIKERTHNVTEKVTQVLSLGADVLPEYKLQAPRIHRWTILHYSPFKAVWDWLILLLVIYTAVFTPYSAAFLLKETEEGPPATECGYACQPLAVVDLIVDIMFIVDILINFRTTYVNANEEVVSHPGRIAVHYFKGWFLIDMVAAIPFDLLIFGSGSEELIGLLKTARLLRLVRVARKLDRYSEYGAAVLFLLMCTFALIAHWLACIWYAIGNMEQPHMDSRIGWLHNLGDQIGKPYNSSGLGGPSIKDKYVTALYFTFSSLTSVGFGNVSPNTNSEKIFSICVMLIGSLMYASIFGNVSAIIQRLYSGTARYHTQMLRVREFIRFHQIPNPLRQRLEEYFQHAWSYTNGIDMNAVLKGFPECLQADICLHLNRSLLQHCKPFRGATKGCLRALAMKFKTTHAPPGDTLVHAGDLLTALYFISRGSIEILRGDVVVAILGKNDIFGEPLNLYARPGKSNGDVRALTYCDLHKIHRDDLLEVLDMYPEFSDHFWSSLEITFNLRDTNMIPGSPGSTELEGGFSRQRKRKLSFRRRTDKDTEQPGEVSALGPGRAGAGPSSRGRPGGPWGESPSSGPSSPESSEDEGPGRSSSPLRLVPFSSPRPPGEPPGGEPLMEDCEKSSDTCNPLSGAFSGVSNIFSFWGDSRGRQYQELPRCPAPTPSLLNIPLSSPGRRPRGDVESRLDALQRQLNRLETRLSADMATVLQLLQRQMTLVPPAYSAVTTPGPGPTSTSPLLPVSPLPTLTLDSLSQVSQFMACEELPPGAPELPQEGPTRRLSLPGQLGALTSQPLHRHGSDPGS

For `CC1=C(c2nc3ccccc3[nH]2)C(c2ccc(Cl)c(Cl)c2)n2nccc2N1` (stereo not drawn), the midpoint of inhibition in series [1], the IC50, lay at 510 nM.
The compound `CC1=C(c2ncc(-c3ccccc3)o2)C(c2ccc(Cl)c(Cl)c2)n2nccc2N1` (stereo not drawn) showed a concentration for half-maximal inhibition (IC50) in series [1] of over 1000 nM. In addition, the inhibition in series [2] came out at 25%.
`CC1=C(c2nc3cc(Cl)ccc3n2C)C(c2ccc(Cl)c(Cl)c2)n2nccc2N1` (stereo not drawn) showed an IC50 in [1] of 68 nM.
In series [1], `CC1=C(c2nc3c(F)cccc3n2C)C(c2ccc(Cl)c(Cl)c2)n2nccc2N1` (stereo not drawn) displayed a half-inhibitory concentration (IC50) of 64 nM.
Still for that read-out and setting: as for `COC(=O)c1ccc2c(c1)nc(C1=C(C)Nc3ccnn3C1c1ccc(Cl)c(Cl)c1)n2C` (stereo not drawn), the figure is 200 nM; as for `CC1=C(c2nc3cccc(F)c3n2C)C(c2ccc(Cl)c(Cl)c2)n2nccc2N1` (stereo not drawn), 150 nM.
In [1], `CC(=O)Nc1ccc2c(c1)nc(C1=C(C)Nc3ccnn3C1c1ccc(Cl)c(Cl)c1)n2C` (stereo not drawn) displayed an IC50 of over 1000 nM. Also, the inhibition in series [2] was 8%.
As to `CC1=C(c2nc3ccc(C)cc3n2C)C(c2ccc(Cl)c(Cl)c2)n2nccc2N1` (stereo not drawn), the midpoint of inhibition in series [1], the IC50, lay at 980 nM.
Same read-out and setting: as for `CC1=C(c2nc3cc(C#N)ccc3n2C)C(c2ccc(Cl)c(Cl)c2)n2nccc2N1` (stereo not drawn), the figure is 220 nM.
`COCC1=C(c2nc3cc(F)ccc3n2C)C(c2ccc(Cl)c(Cl)c2)n2nccc2N1` (stereo not drawn): the inhibition is 27% in [3] and 13% in [8]. Also, in series [4], the Vd amounted to 2.1 L/kg. The same compound showed a clearance in [5] of 42 mL/min/kg. Moreover, the Selectivity ratio (in the series listed under Homo sapiens; in series [6]; in series [12]) was over 200 in each case. For the same compound, it took 30 nM to reach half-maximal inhibition in [1] (IC50). For the same compound, in the series on Oryctolagus cuniculus [7], the Activity is over 20%. In [9], the half-life was 1.5 h. At hERG (KCNH2), this compound yielded an inhibition at 10 µM of 47%. For the same compound, the result with Oryctolagus cuniculus [10] was inactive. This compound yielded a bioavailability in [11] of 37%.
With `CCCCc1nnc(C2=C(C)Nc3ccnn3C2c2ccc(Cl)c(Cl)c2)o1` (stereo not drawn), the IC50 in series [1] is over 1000 nM. For the same compound, in [2], the inhibition came to 29%.
Take `CC1=C(c2nc3ccc(Cl)cc3n2C)C(c2ccc(Cl)c(Cl)c2)n2nccc2N1` (stereo not drawn): the IC50 in series [1] was 660 nM.
In the case of `CC1=C(c2nc3cc(S(=O)(=O)Nc4ccccc4)ccc3n2C)C(c2ccc(Cl)c(Cl)c2)n2nccc2N1` (stereo not drawn), the concentration for half-maximal inhibition (IC50) in series [1] was over 1000 nM. The same compound yielded an inhibition in [2] of 30%.
With `CCn1c(C2=C(C)Nc3ccnn3C2c2ccc(Cl)c(Cl)c2)nc2cc(Cl)ccc21` (stereo not drawn), half-maximal inhibition in [1] (IC50) required 57 nM. This counts as double-digit nanomolar.
On the same count and under the same terms, as for `CC1=C(c2nc3cc(Cl)ccc3n2C(C)C)C(c2ccc(Cl)c(Cl)c2)n2nccc2N1` (stereo not drawn), the figure is 94 nM; as for `CC1=C(c2nc3cc(C)ccc3n2C)C(c2ccc(Cl)c(Cl)c2)n2nccc2N1` (stereo not drawn), 200 nM.
The same measure, in the same setting: as for `CC1=C(c2nc3ccccc3s2)C(c2ccc(Cl)c(Cl)c2)n2nccc2N1` (stereo not drawn), the figure is 740 nM; as for `CC1=C(c2nc3ccccc3n2C)C(c2ccc(Cl)c(Cl)c2)n2nccc2N1` (stereo not drawn), 75 nM.
On to `CC1=C(c2nnc(-c3ccccc3)o2)C(c2ccc(Cl)c(Cl)c2)n2nccc2N1` (stereo not drawn), for which the half-maximal inhibitory concentration (IC50) in [1] was over 1000 nM. In [2], this compound returned an inhibition of 18%.
Compound `CC1=C(c2nc3cccc(C)c3[nH]2)C(c2ccc(Cl)c(Cl)c2)n2nccc2N1` (stereo not drawn) returned an IC50 in [1] of 150 nM.
The same measure, in the same setting: as for `CCCn1c(C2=C(C)Nc3ccnn3C2c2ccc(Cl)c(Cl)c2)nc2cc(F)ccc21` (stereo not drawn), the figure is 48 nM.
In [3], `CC1=C(c2nc3cc(F)ccc3n2C)C(c2ccc(Cl)c(Cl)c2)n2nccc2N1` (stereo not drawn) had an inhibition of 37%. In addition, the Vd in series [4] amounted to 1.6 L/kg. The clearance in series [5] was 35 mL/min/kg. The Selectivity ratio (in the series listed under Homo sapiens; in series [6]; in series [12]) was over 200 in each case. This compound yielded a 50% inhibitory concentration (IC50) in series [1] of 15 nM. The half-life in series [9] is 0.57 h. The same compound had an inhibition at 10 µM against hERG (KCNH2) of 83%. For the same compound, the bioavailability in series [11] was determined as 51%.
On to `CC1=C(c2nc3cc(S(C)(=O)=O)ccc3n2C)C(c2ccc(Cl)c(Cl)c2)n2nccc2N1` (stereo not drawn), for which the IC50 in series [1] was over 1000 nM. This compound displayed an inhibition in [2] of 29%.
Regarding `CC1=C(c2nc3cc(C(F)(F)F)ccc3n2C)C(c2ccc(Cl)c(Cl)c2)n2nccc2N1` (stereo not drawn), the concentration for half-maximal inhibition (IC50) in series [1] turned out to be 540 nM.
Turning to `CC1=C(c2nc3cccc(Cl)c3n2C)C(c2ccc(Cl)c(Cl)c2)n2nccc2N1` (stereo not drawn), the IC50 in series [1] is 71 nM.
Turning to `CC1=C(c2nc3cccc(C)c3n2C)C(c2ccc(Cl)c(Cl)c2)n2nccc2N1` (stereo not drawn), the IC50 in series [1] worked out at 110 nM.

The values are drawn from ChEMBL document CHEMBL1155962, “Dihydropyrazolopyrimidines containing benzimidazoles as K(V)1.5 potassium channel antagonists” (Bioorg Med Chem Lett, 2009).
